According to patent US20230416298A1, “PRODRUGS OF NEUROACTIVE STEROIDS” (Brii Biosciences, Inc., priority 2020, published 2023):

Key:
[1] = Liver S9 stability; format: in vitro ADME; details: human liver S9, 37° C.; for half-life at 1 μM: time points up to 60 min; for Stability in Human Liver S9 Formation of parent compound: Yes/No
Procedure: Intermediate solution: Dilute 5 μL of compounds or controls (7-ethoxycoumarin) from stock solution (10 mM) with 495 μL MeOH (Conc.: 100 μM, 1% DMSO, 99% MeOH). Stop solution: Cold ACN (including 100 ng/mL Tolbutamide and Labetalol as internal standard). Add 2 μL test compound or control working solution/well to all plates (T0, T5, T10, T20, T30, T60, NCF60) except matrix blank. Add 600 μL/well stop solution (cold in 4° C., including 100 ng/mL Tolbutamide/100 ng/mL Labetalol) to terminate the TO plate, then put it on ice. Dispense 840 μL/well S9 solution to 96-well plate as reservoir according to plate map. Then add 100 μL/well to every plate by Apricot. Incubate S9 solution and compound at 37° C. for about 10 min except NCF60 and TO. After adding S9 solution and 98 μ LPB buffer to NCF60, incubate at 37° C. without pre-warming, start timer 1. After 60 min, add 600 μL/well stop solution to terminate the reaction. After pre-warming, dispense 760 μL/well cofactor solution to 96-well plate as reservoir according to plate map. Then add 98 μL/well to every plate by Apricot to start reaction. Incubate at 37° C., start timer 2, Add 600 μL/well stop solution (cold in 4° C., including 100 ng/mL Tolbutamide and Labetalol) to terminate the reaction. Samples are centrifuged at 4000 rpm for 20 min. While centrifuging, load 8×new 96-well plate with 300 μL HPLC water, then transfer 100 μL supernatant, mix with water for LC/MS/MS, transferred to Bioanalytical Services for LC-MS/MS analysis. Use equation of first order kinetics to calculate t1/2 and CL: Equation of first order kinetics: […]

[2] = Plasma stability; format: in vitro ADME; details: 37° C.; for Stability in Human Plasma Formation of parent compound: 2 μM, Yes/No; for half-life at 2 μM: pooled plasma, pH 7.4, human plasma, time points 0, 10, 30, 60 and 120 min
Procedure: The pooled frozen plasma was thawed in a water bath at 37° C. prior to experiment. Plasma was centrifuged at 4000 rpm for 5 min and the clots were removed if any. The pH will be adjusted to 7.4±0.1 if required.
Preparation of test compounds and positive control (propantheline bromide): 1 mM intermediate solution was prepared by diluting 10 μL of the stock solution with 90 μL MeOH; 1 mM intermediate of positive control Propantheline was prepared by diluting 10 μL of the stock solution with 90 μL ultrapure water. 100 μM dosing solution was prepared by diluting 20 μL of the intermediate solution (1 mM) with 180 μL MeOH. 98 μL of blank plasma was spiked with 2 μL of dosing solution (100 μM) to achieve 2 μM of the final concentration in duplicate and samples were incubated at 37° C. in a water bath. At each time point (0,10, 30, 60 and 120 min), 400 μL of stop solution (0.1% FA in MeOH containing 200 ng/mL tolbutamide and 200 ng/mL Labetalol) was added to precipitate protein and mixed thoroughly. Centrifuged sample plates at 4,000 rpm for 10 min. An aliquot of supernatant (100 μL) was transferred from each well to another plates.
Data analysis: The % remaining of test compound after incubation in plasma was calculated using following equation:
% Remaining=[…]×(PAR at appointed incubation time/PAR at T0 time)
where PAR is the peak area ratio of analyte versus internal standard (IS) (LC/MS/MS mobile phase condition: 0.1% Formic Acid in Water/0.1% Formic Acid in Acetonitrile. The appointed incubation time points are TO (0 min), Tn (n=0, 10, 30, 60, 120 min).

Row | SMILES | half-life at 1 μM [1] [min] | Stability in Human Liver S9 Formation of parent compound [1] | Stability in Human Plasma Formation of parent compound [2] | half-life at 2 μM [2] [min]
1 | CCCCCC(=O)O[C@@H]1CC[C@@]2(C)[C@@H](CC[C@@H]3[C@@H]2CC[C@]2(C)[C@@H](C(C)=O)CC[C@@H]32)C1 [Example 1, [(3R,5S,8R,9S,10S,13S,14S,17S)-17-acetyl-10,13-dimethyl-2,3,4,5,6,7,8,9,11,12,14,15,16,17-tetradecahydro-1H-cyclopenta[a]phenanthren-3-yl]hexanoate] | < 50 | No | No | > 200
2 | CCCCCCC(=O)O[C@@H]1CC[C@@]2(C)[C@@H](CC[C@@H]3[C@@H]2CC[C@]2(C)[C@@H](C(C)=O)CC[C@@H]32)C1 [Example 2, [(3R,5S,8R,9S,10S,13S,14S,17S)-17-acetyl-10,13-dimethyl-2,3,4,5,6,7,8,9,11,12,14,15,16,17-tetradecahydro-1H-cyclopenta[a]phenanthren-3-yl]heptanoate] | < 50 | No | No | > 200
3 | CC(=O)[C@H]1CC[C@H]2[C@@H]3CC[C@H]4C[C@H](OC(=O)CC5CCCC5)CC[C@]4(C)[C@H]3CC[C@]12C [Example 8, [(3R,5S,8R,9S,10S,13S,14S,17S)-17-acetyl-10,13-dimethyl-2,3,4,5,6,7,8,9,11,12,14,15,16,17-tetradecahydro-1H-cyclopenta[a]phenanthren-3-yl] 3-cyclopentylacetate] | < 50 | No | No | > 200
4 | CC(=O)OCCCC(=O)O[C@@H]1CC[C@@]2(C)[C@@H](CC[C@@H]3[C@@H]2CC[C@]2(C)[C@@H](C(C)=O)CC[C@@H]32)C1 [Example 14, [(3R,5S,8R,9S,10S,13S,14S,17S)-17-acetyl-10,13-dimethyl-2,3,4,5,6,7,8,9,11,12,14,15,16,17-tetradecahydro-1H-cyclopenta[a]phenanthren-3-yl]4-acetoxybutanoate] | < 50 | No | No | 50 to 200
5 | CC(=O)[C@H]1CC[C@H]2[C@@H]3CC[C@H]4C[C@H](OC(=O)CCCOC(=O)C(C)C)CC[C@]4(C)[C@H]3CC[C@]12C [Example 15, [(3R,5S,8R,9S,10S,13S,14S,17S)-17-acetyl-10,13-dimethyl-2,3,4,5,6,7,8,9,11,12,14,15,16,17-tetradecahydro-1H-cyclopenta[a]phenanthren-3-yl]4-(2-methylpropanoyloxy)butanoate] | < 50 | No | No | 50 to 200
6 | CC(=O)OCCCCC(=O)O[C@@H]1CC[C@@]2(C)[C@@H](CC[C@@H]3[C@@H]2CC[C@]2(C)[C@@H](C(C)=O)CC[C@@H]32)C1 [Example 16, [(3R,5S,8R,9S,10S,13S,14S,17S)-17-acetyl-10,13-dimethyl-2,3,4,5,6,7,8,9,11,12,14,15,16,17-tetradecahydro-1H-cyclopenta[a]phenanthren-3-yl] 5-acetoxypentanoate] | < 50 | No | No | 50 to 200
7 | CC(=O)OCCCC(C)C(=O)O[C@@H]1CC[C@@]2(C)[C@@H](CC[C@@H]3[C@@H]2CC[C@]2(C)[C@@H](C(C)=O)CC[C@@H]32)C1 (stereo partly drawn) [Example 17, [(3R,5S,8R,9S,10S,13S,14S,17S)-17-acetyl-10,13-dimethyl-2,3,4,5,6,7,8,9,11,12,14,15,16,17-tetradecahydro-1H-cyclopenta[a]phenanthren-3-yl]5-acetoxy-2-methyl-pentanoate] | < 50 | No | No | 50 to 200
8 | CC(=O)[C@H]1CC[C@H]2[C@@H]3CC[C@H]4C[C@H](OC(=O)OCCOC(=O)C(C)C)CC[C@]4(C)[C@H]3CC[C@]12C [Example 19, 2-[[(3R,5S,8R,9S,10S,13S,14S,17S)-17-acetyl-10,13-dimethyl-2,3,4,5,6,7,8,9,11,12,14,15,16,17-tetradecahydro-1H-cyclopenta[a]phenanthren-3-yl]oxycarbonyloxy]ethyl 2-methylpropanoate] | < 50 | Yes | No | 50 to 200
9 | CC(=O)[C@H]1CC[C@H]2[C@@H]3CC[C@H]4C[C@H](OC(=O)OCc5oc(=O)oc5C)CC[C@]4(C)[C@H]3CC[C@]12C [Example 20, [(3R,5S,8R,9S,10S,13S,14S,17S)-17-acetyl-10,13-dimethyl-2,3,4,5,6,7,8,9,11,12,14,15,16,17-tetradecahydro-1H-cyclopenta[a]phenanthren-3-yl](5-methyl-2-oxo-1,3-dioxol-4-yl)methyl carbonate] | < 50 | Yes | Yes | < 50
10 | CCCCOC(=O)O[C@@H]1CC[C@@]2(C)[C@@H](CC[C@@H]3[C@@H]2CC[C@]2(C)[C@@H](C(C)=O)CC[C@@H]32)C1 [Example 21, [(3R,5S,8R,9S,10S,13S,14S,17S)-17-acetyl-10,13-dimethyl-2,3,4,5,6,7,8,9,11,12,14,15,16,17-tetradecahydro-1H-cyclopenta[a]phenanthren-3-yl]butyl carbonate] | < 50 | Yes | No | > 200
11 | CC(=O)[C@H]1CC[C@H]2[C@@H]3CC[C@H]4C[C@H](OC(=O)NCCOC(=O)C(C)C)CC[C@]4(C)[C@H]3CC[C@]12C [Example 22, 2-[[(3R,5S,8R,9S,10S,13S,14S,17S)-17-acetyl-10,13-dimethyl-2,3,4,5,6,7,8,9,11,12,14,15,16,17-tetradecahydro-1H-cyclopenta[a]phenanthren-3-yl]oxycarbonylamino]ethyl 2-methylpropanoate] | < 50 | Yes | No | > 200
12 | CC(=O)[C@H]1CC[C@H]2[C@@H]3CC[C@H]4C[C@H](OC(=O)N(C)CCOC(=O)C(C)C)CC[C@]4(C)[C@H]3CC[C@]12C [Example 23, 2-[[(3R,5S,8R,9S,10S,13S,14S,17S)-17-acetyl-10,13-dimethyl-2,3,4,5,6,7,8,9,11,12,14,15,16,17-tetradecahydro-1H-cyclopenta[a]phenanthren-3-yl]oxycarbonyl-methyl-amino]ethyl 2-methylpropanoate] | < 50 | Yes | No | 50 to 200
13 | CC(=O)[C@H]1CC[C@H]2[C@@H]3CC[C@H]4C[C@H](OC(=O)OCCNC(=O)C(C)C)CC[C@]4(C)[C@H]3CC[C@]12C [Example 24, [(3R,5S,8R,9S,10S,13S,14S,17S)-17-acetyl-10,13-dimethyl-2,3,4,5,6,7,8,9,11,12,14,15,16,17-tetradecahydro-1H-cyclopenta[a]phenanthren-3-yl] 2-(2-methylpropanoylamino)ethyl carbonate)] | < 50 | No | No | > 200
